# Source: US20130273649A1, “Culture medium for pluripotent stem cells” (UNIVERSITY OF SOUTHERN CALIFORNIA, priority 2012, published 2013)
# Tests used:
# Format in all cases: cell-based
# β-catenin = assay: Western blot of nuclear β-catenin in mouse EpiSCs; details: 3 μM CHIR 12 h
# Protocol: (A) Western blot analysis of cytoplasmic, nuclear and total β-catenin levels in CD1 mouse EpiSCs overexpressing Flag-tagged Axin1 or Axin2. Cells were either untreated or treated with 3 μM CHIR for 12 h. (B) Immunostaining of CD1 mouse EpiSCs overexpressing Flag-tagged Axin2 (C) Co-IP of Flag or β-catenin in CD1 mouse EpiSCs overexpressing empty vector or Flag-tagged Axin2. Cells were treated with 3 μM CHIR for 12 h (D) Immunostaining of ΔNβ-catenin-ERT2-overexpressing CD1 mouse EpiSCs before and after treatment with 1 μM 4-OHT. (E). Western blot analysis of cytoplasmic and nuclear ΔNβ-catenin-ERT2 levels after treatment with 1 μM 4-OHT for 24 h. (F). Phase contrast image of ΔNβ-catenin-ERT2-EpiSCs after 25 passages in basal medium only. (G) qRT-PCR analysis of Oct4, Nanog and Fgf5 mRNA levels in ΔNβ-catenin-ERT2-EpiSCs maintained in basal medium or basal medium plus FGF2/activin for 11 passages. Data represent mean±s.d. of three biological replicates. (H) Phase contrast image of ΔNβ-catenin-ERT2-EpiSCs after treatment with 1 μM 4-OHT for 24 h. […]
# Next, we investigated how β-catenin mediates EpiSC self-renewal. […] To determine whether nuclear translocation of β-catenin is affected by Axin, we analyzed β-catenin protein levels in whole-cell, cytoplasmic and nuclear fractions before and after CHIR treatment. […] In Axin2-EpiSCs, Axin2 expression was mainly detected in the cytoplasm (FIG. 6B). […]
# Axin1 = assay: Western blot of Axin1 in human ESCs; details: human ESCs treated 24 h
# Protocol: (A) TOPFlash™ assay in H9 human ESCs subjected to the indicated treatments for 24 h. Data represent mean±s.d. of three biological replicates. (B) Representative phase contrast and alkaline phosphatase (AP) staining images of H9 human ESCs cultured in the indicated conditions for 3 passages. (C) Phase contrast images of H9 human ESCs cultured in CHIR/XAV or CHIR/IWR-1 for 11 passages. (D) Colony forming efficiency assay of H9 human ESCs cultured in FGF2 or CHIR/IWR-1 conditions. Data represent mean±s.d. of three biological replicates. Right panel: a representative image showing AP staining of colonies formed from H9 human ESCs cultured in either FGF2 or CHIR/IWR-1 condition. (E) Human ESCs cultured in CHIR/IWR-1 for 11 passages were immunostained with the indicated antibodies. (F) Embryoid bodies (EBs) were generated from H9 human ESCs cultured in CHIR/IWR-1 for 11 passages. The outgrowths of EBs were immunostained with the indicated antibodies. (G) H&E staining of teratomas generated from H9 ESCs cultured in CHIR/IWR-1 for 20 passages. (H) Western blot analysis of Axin1 and Axin2 expression in HES3 human ESCs treated with the indicated cytokines/inhibitors for 24 h. (I) Immunofluorescence images of H9 human ESCs (passage 5 in CHIR) overexpressing Flag-tagged Axin2. […]
# Axin2 = assay: Western blot of Axin2 in human ESCs; details: human ESCs treated 24 h
structure (smiles),measurement,setting,value
"Cc1c[nH]c(-c2cnc(NCCNc3ccc(C#N)cn3)nc2-c2ccc(Cl)cc2Cl)n1 [CHIR99021, 6-((2-((4-(2,4-Dichlorophenyl)-5-(4-methyl-1H-imidazol-2-yl)pyrimidin-2-yl)amino)ethyl)amino)nicotinonitrile]",nuclear β-catenin protein level,β-catenin; Axin2-EpiSCs,barely detectable
same,nuclear β-catenin protein level,β-catenin; vector-EpiSCs and Axin1-EpiSCs,dramatically increased
same,amount of Axin1 protein,Axin1,not Axin1
same,amount of Axin2 protein,Axin2,induced the expression of Axin2
